What was measured:
[1] = test system: HBsAg secretion in HepG2.2.15 cells; test: HepG2.2.15 cell culture system, HBsAg quantitation by CLIA, MacSynergy II; assay type: cell-based, human hepatoblastoma HepG2 cells; settings: for Additive % Inhibition versus negative control: Trial 3, n = 4, SIRNA-NP μM: 0.0025, 0.00079, 0.00025, 7.9E−05, 2.5E−05, 0
Method: In vitro combination studies were conducted using the method of Prichard and Shipman (Prichard M N, and Shipman C Jr., Antiviral Research, 1990, 14 (4-5), 181-205; and Prichard M N, et. al., MacSynergy II). The HepG2.2.15 cell culture system is a cell line derived from human hepatoblastoma HepG2 cells that have been stably transfected with the adw2-subtype HBV genome as previously explained in Sells et al. (Proc. Natl. Acad. Sci. U. S. A, 1987. Vol 84:1005-1009). HepG2.2.15 cells secrete Dane-like viral particles, produce HBV DNA, and also produce the viral proteins, hepatitis B e antigen (HBeAg) and hepatitis B surface antigen (HBsAg).
To test the compound combinations, HepG2.2.15 (30,000 cells/well) were plated in 96 well tissue-culture treated microtiter plates in RPMI+L-Glutamine medium supplemented with 1% penicillin-streptomycin, 20 μg/mL geneticin (G418), 10% fetal bovine serum, and incubated in a humidified incubator at 37° C. and 5% CO2 overnight. […] […] The microtiter cell plates were incubated for a duration of 6 days in a humidified incubator at 37° C. and 5% CO2.
(§1) Untreated positive control samples (0.5% DMSO in media) were included on each plate in multiple wells. Following a 6 day-incubation, media was removed from treated cells for use in an HBsAg chemiluminescence immunoassay (CLIA) (Autobio Diagnostics, Cat No. CL0310-2). An HBsAg standard curve was generated to verify that the levels of HBsAg quantification were within the detection limits of the assay. The remaining inhibitor-treated cells were assessed for cytotoxicity by determination of the intracellular adenosine triphosphate (ATP) using a Cell-Titer Glo reagent (Promega) as per manufacturers instructions and by microscopic analysis of the cells throughout the duration of inhibitor treatment. Cell viability was calculated as a percentage of the untreated positive control wells.
The plates were read using an EnVision multimode plate reader (PerkinElmer Model 2104). […] The RLU data from the single compound treated cells were analyzed using XL-Fit module in Microsoft Excel to determine EC50 values using a 4-parameter curve fitting algorithm.

HepG2.2.15 cells = test: HepG2.2.15 cytotoxicity (intracellular ATP, Cell-Titer Glo; microscopy); assay type: cell-based, human hepatoblastoma HepG2 cells; settings: Trial 3, SIRNA-NP μM: 0.0025, 0.00079, 0.00025, 7.9E−05, 2.5E−05, 0
Method: as §1

hepatitis B virus (HBV) [2] = test: Mouse model of HBV (AAV1.2 tail vein injection), serum HBsAg enzyme immunoassay; assay type: in vivo, C57/B16 mice; settings: Compound 20 3.0 mg/kg oral twice daily Days 0-28, HBV siRNA (LNP) 0.3 mg/kg IV Day 0, n=5 (n=4 vehicle + siRNA)
Method: (§2) This viral vector contains a 1.2-fold overlength copy of the HBV genome and expresses HBV surface antigen (HBsAg) amongst other HBV products. Serum HBsAg expression in mice was monitored using an enzyme immunoassay. Animals were sorted (randomized) into groups based on serum HBsAg levels such that a) all animals were confirmed to express HBsAg and b) HBsAg group means were similar to each other prior to initiation of treatments.
Animals were treated with Compound 20 as follows: Starting on Day 0, a 3.0 mg/kg dosage of Compound 20 was administered orally to animals on a twice-daily frequency for a total of 56 doses between Days 0 and 28. Compound 20 was dissolved in a co-solvent formation for administration. Negative control animals were administered either the co-solvent formulation alone, or were not treated with any test article. Animals were treated with lipid nanoparticle (LNP)-encapsulated HBV-targeting siRNAs as follows: On Day 0, an amount of test article equivalent to 0.3 mg/kg siRNA was administered intravenously. The HBsAg expression levels for each treatment were compared against the Day 0 (pre-dose) values for that group.
The effect of these treatments was determined by collecting blood on Days 0 (pre-treatment), 7, 14, and 28 and analyzing it for serum HBsAg content.

hepatitis B virus (HBV) [3] = test: Mouse model of HBV (pAAV/HBV1.2 hydrodynamic injection), serum HBsAg enzyme immunoassay; assay type: in vivo, C3H/HeN mice; settings: HBV siRNA 1 mg/kg IV Days 0, 7, 14, poly(I:C) 20 μg HDI Day 0, mean ± SEM
Excerpt: A mouse model of hepatitis B virus (HBV) was used to assess the anti-HBV effects of an immune stimulant and HBV-targeting siRNAs, both as independent treatments and in combination with each other.
as §2, with “This plasmid carries” for “This viral vector contains”, “of a” for “of the”
Animals were treated with immune stimulant as follows: On Day 0, 20 micrograms of high molecular weight polyinosinic:polycytidylic acid (poly(I:C)) was administered via HDI. Animals were treated with lipid nanoparticle (LNP)-encapsulated HBV-targeting siRNAs as follows: On each of Days 0, 7 & 14, an amount of test article equivalent to 1 mg/kg siRNA was administered intravenously. A negative control group was included as the HBsAg expression level is not completely stable in this mouse model of HBV; the absolute concentration of serum HBsAg generally declines over time in individual animals.
The effect of the treatments was determined by collecting a small amount of blood on Days 0 (pre-treatment), 3, 7, 14 & 21 and analyzing it for serum HBsAg content. Samples were diluted as appropriate to generate values within the assay range of quantitation where possible. Individual values falling below the lower limit of quantitation (LLOQ) were set as one-half the LLOQ.

In the case of `COCCCOc1cc2c(cc1OC)-c1cc(=O)c(C(=O)O)cn1[C@H](C(C)C)C2` [Compound 5], the EC50 ([1]; HBsAg by CLIA, trial by row: r8 1, r9 2, r10 3, read-out: Compound 5 EC50) is reported as 2 nM, the “Additive % Inhibition versus negative control” value ([1]; Compound 5 0.0001 μM) is reported as 69.99% and the “Additive % Inhibition versus negative control” value ([1]; Compound 5 0.000316 μM) is reported as 82.39%. The “Additive % Inhibition versus negative control” value ([1]; Compound 5 0.001 μM) was 89.01%, the “Additive % Inhibition versus negative control” value ([1]; Compound 5 0.00316 μM) was 90.26% and the “Additive % Inhibition versus negative control” value ([1]; Compound 5 0.1 μM) was 86.26%. For the same compound, the “Additive % Inhibition versus negative control” value ([1]; Compound 5 1.0E−05 μM) was 46.36%, the “Additive % Inhibition versus negative control” value ([1]; Compound 5 1.00E−06 μM) was 22.68% and the “Additive % Inhibition versus negative control” value ([1]; Compound 5 3.16E−06 μM) was 34.18%. For the same compound, the “Additive % Inhibition versus negative control” value ([1]; Compound 5 3.17E−05 μM) was 56.34%, the “Avg % Cell Viability vs control” value (HepG2.2.15 cells; Compound 5 0.0001 μM) was 128% and the “Avg % Cell Viability vs control” value (HepG2.2.15 cells; Compound 5 0.000316 μM) was 131%. For the same compound, the “Avg % Cell Viability vs control” value (HepG2.2.15 cells; Compound 5 0.001 μM) was 141%, the “Avg % Cell Viability vs control” value (HepG2.2.15 cells; Compound 5 0.00316 μM) was 127% and the “Avg % Cell Viability vs control” value (HepG2.2.15 cells; Compound 5 0.1 μM) was 99%. For the same compound, the “Avg % Cell Viability vs control” value (HepG2.2.15 cells; Compound 5 1.0E−05 μM) was 140%, the “Avg % Cell Viability vs control” value (HepG2.2.15 cells; Compound 5 1.00E−06 μM) was 131% and the “Avg % Cell Viability vs control” value (HepG2.2.15 cells; Compound 5 3.16E−06 μM) was 127%. The “Avg % Cell Viability vs control” value (HepG2.2.15 cells; Compound 5 3.17E−05 μM) was 131%.
For `COCCCOc1cc2c(cc1OC)-c1cc(=O)c(C(=O)O)cn1[C@H](C(C)C)C2` [Compound 20], the “serum HBsAg as percentage of pre-treatment baseline at Day 0 (mean ± SEM)” value (“serum HBsAg as percentage … (mean ± SEM)” for short) (hepatitis B virus (HBV) [2]; D 7) was 7 ± 1%, the “serum HBsAg as percentage … (mean ± SEM)” value (hepatitis B virus (HBV) [2]; D 14) was 8 ± 2% and the “serum HBsAg as percentage … (mean ± SEM)” value (hepatitis B virus (HBV) [2]; D 21) was 7 ± 2%. The “serum HBsAg as percentage … (mean ± SEM)” value (hepatitis B virus (HBV) [2]; D 28) was 8 ± 2%.
“polyinosinic:polycytidylic acid [Poly(I:C)]” was tested, and the “Serum HBsAg, % of individual pre-treatment baseline (Day 0)” value (“Serum HBsAg, %” for short) (hepatitis B virus (HBV) [3]; Day 3, n=4 or 5) was 6.1 ± 1.1%, the “Serum HBsAg, %” value (hepatitis B virus (HBV) [3]; Day 7) was 3.5 ± 1.1% and the “Serum HBsAg, %” value (hepatitis B virus (HBV) [3]; Day 14) was 3.9 ± 1.4%. For the same compound, the “Serum HBsAg, %” value (hepatitis B virus (HBV) [3]; Day 21) was 4.7 ± 2.3%.

Reference: patent US20220265817A1, “THERAPEUTIC COMPOSITIONS AND METHODS FOR TREATING HEPATITIS B” (priority 2017, published 2022)
